In patent US8686115B2, “Compositions and methods for quantitatively monitoring lipids” (The Board of Trustees of the University of Illinois, priority 2009, dated 2014):
Positions count from the first letter of the chain named.

Legend:
[1] = target: T1, epsin 1 ENTH domain (SEQ ID NO: 1) variant C96A (Homo sapiens, UniProt Q9Y6I3, C96A); experiment: SPR equilibrium binding of epsin1 ENTH C96A to phosphoinositide-containing LUVs; details: POPC/POPS/PtdIns(4,5)P2 (77:20:3) LUVs, 20 mM Tris-HCl pH 7.4, 0.16 M KCl, read-out: Kd for PtdIns(4,5)P2
T1 construct: The Epsin1 ENTH domain (1-158 amino acids) was subcloned; GST (C, cleaved yes); made in house; host or cells: E. coli BL21 RIL codon plus
T1 sequence (Q9Y6I3 1-158 C96A): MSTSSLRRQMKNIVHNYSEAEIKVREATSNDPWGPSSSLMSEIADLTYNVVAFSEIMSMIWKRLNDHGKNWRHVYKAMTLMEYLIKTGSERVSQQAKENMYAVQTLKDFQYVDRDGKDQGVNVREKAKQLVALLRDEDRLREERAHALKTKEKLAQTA
Source text: (§1) The ENTH domain was engineered to introduce a single labeling site (M10C) on the membrane binding surface while removing an endogenous Cys (C96A). We also performed the S4W mutation to suppress its residual affinity for another lipid, phosphatidylinositol-3,4,5-trisphosphate (PtdIns(3,4,5)P3) (PtdIns(4,5)P2/PtdIns(3,4,5)P3=4 for wild type and >10 for the mutant) and to enhance the overall affinity for PtdIns(4,5)P2-containing membranes (ca. 4-fold) (Table 1).
(§2) With respect to FIG. 1, an L1 sensor chip was coated with POPC/POPS/PtdIns(4,5)P2 (77:20:3) LUVs. The proteins were incubated with a given concentration of IP3 for 5 minutes before injecting into the SPR instrument. Kinetic SPR measurements were performed in 20 mM Tris-HCL, pH 7.4, containing 0.16 KCl. […] A lower concentration of DAN-eENTH was used than that of PLCδ PH because the former has much higher affinity that the latter.
All mutations (S4W, M10C, and C96A) were performed by polymerase chain reaction mutagenesis and verified by DNA sequencing. eENTH may comprise the following sequence:
E. coli BL21 RIL codon plus (Stratagene) cells were used for protein expression. Cells were grown in Luria broth media containing 100 μg/ml of ampicillin at 37° C. 0.1 mM of Isopropyl β-D-1-thiogalactopyranoside was added to induce over-expression of recombinant proteins when the OD600 reached 0.5-0.8 and cells were grown for additional 6 to 10 hours at 25° C. Cells were harvested by centrifugation and cell pellets were resuspended in 50 mM Tris-HCl buffer (pH 7.4) containing 160 mM KCl, 1 mM phenylmethanesulphonylfluoride, and 5 mM of dithiothreitol (DTT). Cells were lysed by sonication and the lysate was collected by centrifugation at 4° C. […] Purity and the concentration of the recombinant proteins were determined by sodium dodecylsulfate-polyacrylamide gel electrophoresis and bicinchoninic acid assay, respectively. The DAN labeling yield of eENTH, which was calculated as the molar ratio of DAN (determined spectrophotometrically at 391 nm using its extinction coefficient of 20,000 cm^−1 M^−1) to protein, was typically 60-70%. […]

[2] = target: T2, epsin 1 ENTH domain, wild type, SEQ ID NO: 1 (Homo sapiens, UniProt Q9Y6I3); experiment: SPR equilibrium binding of epsin1 ENTH domain (wild type) to phosphoinositide-containing LUVs
T2 construct: The Epsin1 ENTH domain (1-158 amino acids) was subcloned; GST (C, cleaved yes); made in house; host or cells: E. coli BL21 RIL codon plus
T2 sequence (Q9Y6I3 1-158): T1 sequence (Q9Y6I3 1-158 C96A) with A96C
Source text: as §1, §2
The Epsin1 ENTH domain (1-158 amino acids) was subcloned into the pGEX4T-1 vector and expressed as a […] glutathione S-transferase (GST)-tagged protein. The ENTH domain amino acid sequence is as follows:
E. coli BL21 RIL codon plus (Stratagene) cells were used for protein expression. Cells were grown in Luria broth media containing 100 μg/ml of ampicillin at 37° C. 0.1 mM of Isopropyl β-D-1-thiogalactopyranoside was added to induce over-expression of recombinant proteins when the OD600 reached 0.5-0.8 and cells were grown for additional 6 to 10 hours at 25° C. Cells were harvested by centrifugation and cell pellets were resuspended in 50 mM Tris-HCl buffer (pH 7.4) containing 160 mM KCl, 1 mM phenylmethanesulphonylfluoride, and 5 mM of dithiothreitol (DTT). Cells were lysed by sonication and the lysate was collected by centrifugation at 4° C. The GST-affinity resin (GenScript) for GST-tagged proteins or nickel-nitrilotriacetic acid resin (Qiagen, Valencia, Calif.) for His6-tagged proteins was added into the cell lysate and the mixture was gently shaken for 30 minutes at 4° C. The mixture was applied to a column and the column was washed once with 50 mM Tris-HCl buffer (pH 7.4) containing 160 mM KCl and 5 mM of DTT to reduce thiol group, and washed several times with the same buffer without DTT to remove DTT. For DAN labeling, 100 μg of acrylodan was added to the column at this stage and incubated 16 hours at 4° C. The excess acrylodan was removed by washing the column with the buffer several times. […] Purity and the concentration of the recombinant proteins were determined by sodium dodecylsulfate-polyacrylamide gel electrophoresis and bicinchoninic acid assay, respectively. The DAN labeling yield of eENTH, which was calculated as the molar ratio of DAN (determined spectrophotometrically at 391 nm using its extinction coefficient of 20,000 cm^−1 M^−1) to protein, was typically 60-70%. […]

With `CCCCCCCCCCCCCCCC(=O)OC[C@H](COP(=O)(O)O[C@@H]1[C@H](O)[C@H](O)[C@@H](OP(=O)(O)O)[C@H](OP(=O)(O)O)[C@H]1O)OC(=O)CCCCCCCCCCCCCCC` [PtdIns(4,5)P2, phosphatidylinositol-4,5-bisphosphate] the Kd [1] was 53 nM, the Kd ([2]; SPR, POPC/POPS/PtdIns(4,5)P2 (77:20:3) LUVs, 20 mM Tris-HCl pH 7.4, 0.16 M KCl, read-out: Kd for PtdIns(4,5)P2) was 50 nM and the “PtdIns(4,5)P2/PtdIns(3,4,5)P3 selectivity” value ([2]; wild type) was 4.
